# Laboratory results reported in patent US20020165221A1, “Mediators of hedgehog signaling pathways, compositions and uses related thereto” (priority 2000, published 2002).
# Key:
# [1] = test system: GLI-1 expression in human BCC; experiment: Human BCC explant culture, quantitative in situ hybridization; assay type: cell-based; details: 10 μM D, 3 days, vs vehicle
# Procedure: Specimens obtained from surgical procedures (such as Mohs surgery or curettage) were cultured on fresh, living, day 17 embryonic mouse dermis from which all epidermal cells have been removed by digestion using dispase. Since dispase treatment digests basement membrane components, Matrigel, a commercially available basement membrane preparation, was applied between the dermis and BCC. Cultures were assembled on top of a plastic grid and incubated for 3 days (with or without D at a concentration of 10 μM) in a medium suitable for the long-term culture of human skin. After culture, the samples were processed for routine histology and subjected to quantitative in situ hybridization. Briefly, 7μm sections of paraformaldehyde-fixed, paraffin-embedded tissue containing large basal cell islands were cleared, re-hydrated, digested with proteinase K, acetylated and hybridized with [^33P]- labeled RNA probes overnight. After high stringency post-hybridization washes, slides were exposed to a PhosphorImager screen in the dark at room temperature for 4-7 days. After developing, the [^33P]-signal was scanned using a Storm Scanner (Molecular Dynamics). Individual basal cell islands were selected and the signal quantified and expressed in average counts/pixel using ImageQuant 1.0 software.
# [2] = test system: Patched pathway / ultraviolet radiation-induced BCC tumors; experiment: Adult BCC mouse skin punch assay (UV-irradiated Ptc heterozygous transgenic mice); assay type: cell-based
# Procedure: Ptc heterozygous transgenic mice were irradiated 3 times weekly for 6 months, during which time many small, and often microscopic, BCC tumors developed. Four-mm diameter skin punch explants, presumably containing BCC structures, were cultured for 6 days in the presence of vehicle, the positive control […]), or 5 μM D. At the end of the experiment, the explants were analyzed by X-gal staining to detect the level of Patched pathway activity, by histology to determine the effect of treatment on the morphology of ultraviolet radiation-induced BCCs, and by quantifying the level of gli-1 mRNA expression to characterize the extent of pathway inhibition.
# [3] = test system: Ptc-null cells (gli-1 mRNA, Patched pathway); experiment: Ptc-null assay: gli-1 mRNA by RT-PCR and quantitative real-time PCR; assay type: cell-based, mouse; details: 3 days; for expression of gli-1 mRNA (RT-PCR, agarose gel): vs vehicle
# Procedure: Ptc-null cells were cultured for 3 days in the presence of vehicle; jervine, a known Patched pathway antagonist (i) used here as a positive control; or 1 μM of compound D. Total ribonucleic acid (RNA) was isolated from the cells and used for reverse transcriptase-polymerase chain reaction (RT-PCR). […] The gli-1 and actin mRNA samples were then loaded on 1.5% agarose gel and were detected by staining with ethidium bromide. The same samples were analyzed by the quantitative real-time polymerase chain reaction method to quantify the levels of gli-1 MRNA.
# [4] = test system: Patched pathway (ptc-lacZ reporter, Shh-induced BCC-like structures); experiment: Embryonic mouse skin punch assay: prolonged exposure to D; assay type: cell-based; details: Shh-treated skin punches, 6 days
# Text: A novel cell culture assay was established to determine the effects of D on activation of the Patched pathway in skin. In this system, activation of the Patched pathway results in increased expression of the ptc gene.
# To monitor the activity of the Patched pathway in embryonic skin, we cultured pieces of skin from transgenic Patched pathway reporter mice. These mice were genetically engineered to harbor a foreign gene (lacZ). The lacZ gene encodes a bacterial beta-galactosidase. The gene was inserted in the ptc locus but allowed for normal ptc function. Ptc activation in response to Shh-induced Patched pathway activation can then be monitored by the production of the lacZ gene product, beta-galactosidase, which is detectable by the enzymatic conversion of the substrate X-gal into a blue-colored reaction product.
# Day 17.5 embryonic skin was explanted as 2 mm circular punches from these transgenic reporter mice and cultured for 5 to 7 days in the presence of Shh protein (FIG. 34). […] To test the effect of D, skin punches were cultured for 6 days in the presence of both Shh protein and D (FIG. 35).
# Hedgehog pathway = experiment: Gli-Luc assay (Hedgehog-responsive Luciferase reporter), 10T1/2(s12) cells with OCT-SHH; assay type: cell-based; details: OCT-SHH 0.3 μg/ml
# Procedure: Compounds to be tested are dissolved in DMSO to a concentration of 10 MM, and stored at −20° C. To activate the Hedgehog pathway in the assay cells, an octylated (lipid-modified) form of the N-terminal fragment of the Sonic Hedgehog protein (OCT-SHH) is used. This N-terminal SHH fragment is produced bacterially.
# Compounds may be tested in the “Gli-Luc” assay below, using the cell line 10T(s12), wherein the cells contain a Hedgehog-responsive reporter construct utilizing Luciferase as the reporter gene. In this way, Hedgehog pathway signaling activity can be measured via the Gli-Luc response.
# 10t1/2(s12) cells are plated in a 96-well micro-titer plate (MTP) at 20,000 cells/well in full medium [DMEM with 10% FBS]. Then plates are placed in the incubator for incubation overnight (O/N), at 37° C. and 5% CO2. After 24 h, the medium is replaced with Luciferase-assay medium (DMEM with 0.5% FBS). Compounds are thawed and diluted in assay medium at 3:1000 (about 300-fold) resulting in a starting concentration of about 30 μM.
# Subsequently, 150 μl of each 30 μM sample is added to the first wells (in triplicate). The MTP samples are then diluted at 3-fold dilutions to a total of seven wells, ultimately resulting in a regiment of seven dilutions in triplicate, for each compound. Next, the protein ligand OCT-SHH is diluted in Luciferase-assay medium and added to each well at a final concentration of 0.3 μg/ml. Plates are then returned to the incubator for further incubation O/N, at 37° C. and 5% CO2. After about 24 h, plates are removed from the incubator and the medium is aspirated/discarded. Wells are washed once with assay buffer [PBS +1 mM Mg^2+and 1 mM Ca^2+]. Then 50 μl of assay buffer is added to each well. The Luciferase assay reagent is prepared as described by the vendor (LucLite kit from Packard), and 50 μl is added to each well. Plates are incubated at room temperature (RT) for about 30 minutes after which the signals are read, again at RT, on a Topcount (Packard).
# [5] = test system: Patched pathway (ptc-lacZ reporter); experiment: Embryonic mouse skin punch assay: short-term pretreatment with D; assay type: cell-based; details: pretreated with D at 10, 20 and 50 μM for 5 hours, then Shh 6 days
# Procedure: Transgenic mouse-derived skin punches were treated with vehicle or D for 5 hours in the absence of Shh. After the pretreatment, the vehicle or D was removed. The skin punches were washed twice and then cultured in the presence of Shh for 6 days. At the end of the experiment, the skin punches were fixed and stained with X-gal to determine Patched pathway activity.
# [6] = test system: Shh-induced BCC-like structures; experiment: Embryonic mouse skin punch assay: long-term treatment of pre-existing BCC-like structures; assay type: cell-based
# Procedure: Day 17.5 embryonic skin punches from transgenic Patched pathway reporter mice were cultured in the presence of Shh protein for 7 days to allow for the development of BCC-like structures. The Shh protein was removed at the end of the 7 days. The cultures were then exposed to Shh protein plus either vehicle or D for 3 days. The cultures were analyzed histologically after 10 days to assess the formation of BCC-like structures that are indicative of activation of the Patched pathway.
# One possible mechanism for D-induced regression of BCC-like structures may be apoptosis of the activated cells. To investigate this possibility, parallel explants were exposed to 5 μM D for 2 days and were then stained by the terminal deoxynucleotidyltransferase mediated d-UTP nick end-labeling (TUNEL) method, which is used to detect apoptotic nuclei.
# [7] = test system: Patched pathway (X-gal, gli-1 mRNA, BCC-like structures); experiment: Embryonic mouse skin punch assay: short-term treatment of pre-existing BCC-like structures; assay type: cell-based
# Procedure: Day 17.5 embryonic skin punches from transgenic Patched pathway reporter mice were cultured in the presence of Shh protein for 7 days. The Shh protein was removed at the end of the 7 days. The skin punches were then exposed to vehicle or 1 or 5 μM D for 5 hours on days 7 and 9. After each exposure to vehicle or D, the vehicle or D was washed off and the skin punches were cultured again in the presence of Shh protein. Cultures were analyzed by X-gal staining after 10 days in vitro to assess the activity of the Patched pathway.
# [8] = short-term treatment, 5 hours on days 7 and 9
smiles,measurement,setting,value
COc1cccc(CN(C(=O)CC(C)(C)C)C2CC(C(=O)N3CCNCC3)N(Cc3ccc4c(c3)OCO4)C2)c1 (stereo not drawn) [Compound D],level of GLI-1 expression (quantitative in situ hybridization),[1],greatly reduced
same,number and size of established BCC structures (X-gal staining),"[2]; 5 μM D, 6 days, vs vehicle",decreased
same,level of gli-1 mRNA,"[2]; D 1 and 5 μM, vs vehicle",significantly inhibited
same,regression of ultraviolet radiation-induced BCC tumors (histology),"[2]; D, 6 days, vs vehicle",induced the regression
same,levels of housekeeping GAPDH (non-specific cytotoxicity),[2]; treated vs vehicle,no significant difference
same,gli-1 mRNA levels (quantitative real-time PCR),[3]; 1 μM D,downregulated
same,"expression of gli-1 mRNA (RT-PCR, agarose gel)",[3]; 1 μM D,significantly decreased
same,X-gal staining,"[4]; 0.2 μM D, vs Shh alone",decreased
same,Patched pathway activity (lacZ reporter enzyme activity),[4]; 0.01 to 1 μM D,dose-dependent decrease
same,formation of BCC-like structures,[4]; histology,completely blocked
same,integrity of normal skin cells,[4]; histology,without affecting the integrity of normal skin cells
same,IC50,Hedgehog pathway,< 1 µM
same,inhibition of Shh protein-induced upregulation of the Patched pathway (X-gal staining),[5],complete inhibition
same,number of apoptotic nuclei within BCC-like structures (TUNEL),"[6]; 5 μM D, 2 days, vs vehicle",significantly higher
same,general cytotoxic effects on skin cells (histology),"[6]; D 1 or 5 μM, 3 days",did not appear to have general cytotoxic effects
same,size and number of Shh-induced BCC-like structures,"[6]; pre-existing structures, D 1 or 5 μM, 3 days, vs vehicle",significantly reduced
same,regression of existing Shh-induced BCC-like structures,[7]; 1 and 5 μM D for 5 hours on days 7 and 9,caused the regression
same,amount of X-gal staining,[7]; 1 or 5 μM D for 5 hours on days 7 and 9,reduced
same,GAPDH mRNA levels (general cytotoxicity),[7]; [8],relatively constant
same,gli-1 transcription (gli-1 mRNA levels),[7]; [8],completely downregulated
Cc1ccccc1CN(C(=O)CC(C)C)C1CC(C(=O)N2CCNCC2)N(Cc2ccc3c(c2)OCO3)C1 (stereo not drawn) [V″],IC50,Hedgehog pathway,< 1 µM
COc1cccc(CN(C(=O)C2CC2)C2CC(C(=O)N3CCNCC3)N(Cc3ccc(F)cc3)C2)c1 (stereo not drawn) [W],IC50,Hedgehog pathway,< 1 µM
COc1cccc(CN(C(=O)C2CCCC2)C2CC(C(=O)N3CCNCC3)N(Cc3ccc4c(c3)OCCO4)C2)c1 (stereo not drawn) [W′],IC50,Hedgehog pathway,< 1 µM
CC(C)CC(=O)N(Cc1ccccc1OC(F)F)C1CC(C(=O)N2CCNCC2)N(Cc2ccc3c(c2)OCO3)C1 (stereo not drawn) [W″],IC50,Hedgehog pathway,< 10 µM
COc1cccc(CN(C(=O)CC(C)(C)C)C2CC(C(=O)N3CCNCC3)N(Cc3ccc(F)cc3)C2)c1 (stereo not drawn) [X],IC50,Hedgehog pathway,< 10 µM
COc1cccc(CN(C(=O)CC(C)C)C2CC(C(=O)N3CCNCC3)N(Cc3ccc(C)s3)C2)c1 (stereo not drawn) [X′],IC50,Hedgehog pathway,< 0.1 µM
CC(C)CC(=O)N(Cc1cccc(SC(F)(F)F)c1)C1CC(C(=O)N2CCNCC2)N(Cc2ccc3c(c2)OCO3)C1 (stereo not drawn) [X″],IC50,Hedgehog pathway,< 10 µM
CC(C)(C)CC(=O)N(Cc1ccccc1)C1CC(C(=O)NCCN)N(CC2CCCCC2)C1 (stereo not drawn) [Y],IC50,Hedgehog pathway,< 10 µM
COc1cccc(CN(C(=O)CC(C)(C)C)C2CC(C(=O)N3CCNCC3)N(Cc3cc4ccsc4s3)C2)c1 (stereo not drawn) [Y′],IC50,Hedgehog pathway,< 1 µM
CC(C)CC(=O)N(Cc1cccc(OCc2ccccc2)c1)C1CC(C(=O)N2CCNCC2)N(Cc2ccc3c(c2)OCO3)C1 (stereo not drawn) [Y″],IC50,Hedgehog pathway,< 10 µM
COc1cccc(CN(C(=O)CC(C)(C)C)C2CC(C(=O)N3CCCNCC3)N(Cc3ccc4c(c3)OCO4)C2)c1 (stereo not drawn) [Z],IC50,Hedgehog pathway,< 1 µM
COc1cccc(CN(C(=O)CC(C)(C)C)C2CC(C(=O)N3CCNCC3)N(Cc3ccc(SC)s3)C2)c1 (stereo not drawn) [Z′],IC50,Hedgehog pathway,< 1 µM
COc1cccc(CN(C(=O)CC(C)(C)C)[C@H]2C[C@@H](C(=O)N3CCN[C@@H](C)C3)N(Cc3ccc4c(c3)OCO4)C2)c1 [Z″],IC50,Hedgehog pathway,< 1 µM
"CC1=C2C(=O)[C@H]3[C@@H](CC=C4C[C@@H](O)CC[C@@]43C)[C@@H]2CC[C@]12O[C@@H]1C[C@H](C)CN[C@H]1[C@H]2C [jervine, reference compound]",number and size of BCC structures (X-gal staining),"[2]; jervine positive control, 6 days, vs vehicle",greatly decreased
same,gli-1 mRNA levels (quantitative real-time PCR),[3]; 5 μM jervine,downregulated
same,"expression of gli-1 mRNA (RT-PCR, agarose gel)",[3]; 5 μM jervine,significantly decreased
